Laboratory results from US11306122B2, “Compositions and methods of inhibiting the binding of plasma IgG autoantibodies to serotonin 2A receptor” (United States Government As Represented By The Department …, priority 2019, dated 2022).
“Also recorded” adds a separate entry of the source. Ends that are not written are not given here.

Tests used:
N2A cells [1] = assay: Neurite retraction in N2A cells induced by 5-HT2AR agonists (DOI, serotonin); type: cell-based, mouse
Text: The mGlu2/3R agonist LY379268 was previously reported to cause positive allosteric modulation of the 5HT2AR protomer affinity at 5HT2AR/mGlu2R heteromers (González-Maeso J, et al., Nature. 2008; 452(7183):93-97).

[2] = tested on: N2A mouse neuroblastoma cells; assay: Acute N2A neurite retraction induced by schizophrenia plasma autoantibodies; type: cell-based; details: for % AutoAB-induced neurite retraction: 20 nM Pt 1 schizophrenia AutoAB
Procedure: (§1) Methods: Plasma from five older adults with chronic schizophrenia and eight age-matched patients having another neuropsychiatric, immune or metabolic disorder was subjected to Protein-A affinity chromatography to obtain IgG autoantibodies. Mean neurite retraction (5 minutes) or cell survival (24 hours) was determined in mouse N2A neuroblastoma cells incubated with autoantibodies in the presence or absence of specific antagonists of the Gq/11/PLC/IP3R signaling pathway, Gi-coupled, beta-arrestin2-directed pathways, or LY379268.
Acute neurite retraction assay. Percent of basal neurite length in N2A cells expressing one or more proximally-located dendrite-like process was determined after interval exposure to test substances (Zimering M B, J Endocrinol Diabetes. 2018; 5(2): 10).
A twenty nanomolar concentration of protein-A eluate fraction of plasma from Pt 1 with schizophrenia was incubated with N2A cells in the presence or absence of the indicated concentration of each Gq/11, GPCR antagonist. Results are the mean+/−SD of two experiments.
A forty nanomolar concentration of plasma autoantibodies (AutoAB) from Pt 1 or Pt, schizophrenia, was incubated in the presence or absence of the indicated concentration of RhoA/Rho kinase (ROCK) inhibitor, or individual antagonists of the Gq11/PLC/IP3R signaling pathway. […]

N2a neuroblastoma cells = assay: N2a cell survival with ZDF rat plasma protein G eluate; type: cell-based, mouse; details: 1 μM antagonist; 1 μg/mL (10 nM) eluate; 24 hours
Procedure: Plasma was applied to a Protein G affinity chromatography column (which binds most subclasses or rat IgG autoantibodies), washed extensively and eluted in low pH (2.7) buffer. The resulting eluate was incubated with N2a neuroblastoma cells at 37 degrees C. for 24 hours.

N2A cells [3] = assay: N2A cell loss (MTT) induced by TBI patient autoantibodies; type: cell-based, mouse
Procedure: Cell survival was determined with MTT assay.
Mouse neuroblastoma cell loss. N2A cell loss was quantified using an MTT (3-(4,5-dimethylthiazol-2-yl)-2,5-diphenyltetrazolium bromide) tetrazolium reduction assay after overnight incubation with autoantibodies from TBI patients (Zimering M B, Endocrinol Diabetes Metab J. 2019 August; 3(4) pii: 118. Epub 2019 Aug. 14).

[4] = tested on: N2A mouse neuroblastoma cells; assay: N2A cell survival (MTT) promoted by schizophrenia/psychosis plasma autoantibodies; type: cell-based; details: M100907 500 nM; LY379268 5 μM; pertussis toxin 100 ng/mL; LY294002 20 μM; 24 hours
Procedure: as §1
N2A cell survival. MTT assay was performed 24 hours after incubation with test substances (Zimering M B, J Endocrinol Diabetes. 2018; 5(2): 10).
Serotonin 2A receptor activation leads to f3-arrestin-2-mediated desensitization and receptor internalization. However, β-arrestin-2 can also couple with diverse signaling pathways leading to enhanced cell proliferation and/or survival promotion.

[5] = tested on: mouse N2A neuroblastoma cells; assay: Acute N2A neurite retraction induced by TBI patient 5-HT2A receptor autoantibodies; type: cell-based; details: for effect on TBI autoantibody-induced acute neurite retraction: M100907 250-500 nM, Y27632 10 μM, other concentrations as in Table 17; for % of autoantibody Neurite Retraction from TBI patients: 60 nM IgG of representative TBI patient
Procedure: Acute neurite retraction. Mouse N2A neuroblastoma cells were maintained in Dulbecco's minimal essential medium with 10% fetal calf serum. […] Neurite retraction represents average neurite length-shortening after five minutes exposure to TBI (5-HT2A receptor) autoantibodies (60-100 nM) in the presence or absence of various G-protein coupled receptor (GPCR) or signaling pathway antagonists.
A 60 nanomolar concentration of the IgG autoantibodies (e.g., 5-HT2A receptor autoantibodies) from a representative TBI patient was incubated with N2A cells in the presence or absence of the indicated concentration of the selective GPCR antagonist.
A 60 nanomolar concentration of 5-HT2A receptor autoantibodies from TBI patients was incubated with N2A cells in the presence or absence of the indicated concentration of Gq11/PLC-gamma/IP3R antagonist or RhoA/Rho kinase pathway inhibitor.
Neurovascular 5-hydroxytryptamine (serotonin) 2A receptor (5-HT2AR) autoantibodies were previously reported to function as long-acting agonists in diabetic angiopathy and subsets of major depression, Parkinson's disease or dementia. The 5-HT2A receptor is highly expressed in specific brain regions underlying cognition, perception and mood regulation. Long-lasting 5-HT2A receptor activation by circulating autoantibodies might contribute to pathophysiology via central and peripheral mechanisms. Since the risk or incidence of Parkinson's disease, depression and dementia increase following traumatic brain injury (TBI), circulating neurotoxic autoantibodies (e.g., 5HT2AR) were tested, characterized and compared with autoantibodies from TBI patients vs. diabetic subsets with or without neurodegenerative disorders. Plasma IgG autoantibodies (e.g., 5-HT2AR autoantibodies) were obtained by protein-A affinity chromatography in ten male TBI patients mean age 64 years old.

[6] = Blood glucose in ZDF rats; type: in vivo, Zucker diabetic fatty (ZDF) rat
[7] = Observation of side effects and sedation in ZDF rats; type: in vivo, Zucker diabetic fatty (ZDF) rat
Procedure: Normally these rats will feed nearly continuously when given the opportunity. This sedating effect was reproducible following a second IP injection of 1 mg of the SEQ ID NO: 2 in each of the 3 ZDR rats. […] Serotonin plays a major role in wakefulness and arousal in the nervous system. It is possible that the administration of SEQ ID NO: 2 blocks the action of the neurotransmitter serotonin at multiple sites in the periphery and in the central nervous system, inducing sleep via antagonism of serotonin's role in wakefulness/arousal, independent of the pronounced blood pressure-lowering effect.

## COc1cc(CC(C)N)c(OC)cc1I (centres unmarked) [DOI, 1-[2,5-dimethoxy-4-iodophenyl]-2-aminopropane]
N2A cells [1]; in the absence of LY379268
  concentration of DOI needed to evoke 25-30% neurite inhibition: 10 µM
N2A cells [1]; in the presence of (10 μM) LY379268
  concentration of DOI needed to evoke 25-30% neurite inhibition: 5 µM
N2A cells [1]; saturating concentration, 20 μM
  peak neurite retraction: 40%

## COc1cccc([C@H](O)C2CCN(CCc3ccc(F)cc3)CC2)c1OC [Peptide M100907]
[2]; M100907 500 nM
  effect on LY379268-potentiated SCZ autoantibody-induced neurite retraction: significantly prevented
[2]; M100907 two-hundred nanomolar, Y27632 ten micromolar, Y254890 one micromolar
  effect on schizophrenia autoantibody-induced neurite retraction: completely prevented
[2]; antagonist 200 nM
  % AutoAB-induced neurite retraction: 0 ± 0%
N2a neuroblastoma cells
  effect on accelerated neuroblastoma cell death induced by ZDF rat protein G eluate: significantly reduced; also recorded: significant protection
N2A cells [3]; 250 nM-500 nM, without autoantibodies
  effect alone on N2A cell survival: no significant effect
N2A cells [3]; M100907 250 nM (eight of eight patients), prazosin 850 nM (n=5), one-fiftieth dilution, 24 hours
  effect on accelerated N2A cell death/loss by TBI autoantibodies: substantially prevented; also recorded: nearly completely prevented
[4]
  effect on autoantibody-induced N2A pro-survival/proliferation (words): significantly blocked
[5]; M100907 200-670 nM, n=10 TBI patients, retraction alone 52±10%
  prevention of mean neurite retraction in TBI patient 5-HT2AR autoantibodies: 89-91%
[5]
  effect on TBI autoantibody-induced acute neurite retraction: substantially prevented; also recorded: completely or nearly completed prevented
[5]; antagonist 250 nM
  % of autoantibody Neurite Retraction from TBI patients: 0%

## O=C(CCCN1CCC2(CC1)C(=O)NCN2c1ccccc1)c1ccc(F)cc1 [Spiperone]
[2]; antagonist 500 nM
  % AutoAB-induced neurite retraction: 17 ± 6%
N2a neuroblastoma cells
  effect on accelerated neuroblastoma cell death induced by ZDF rat protein G eluate: significantly reduced; also recorded: significant protection
[5]
  effect on TBI autoantibody-induced acute neurite retraction: substantially blocked
[5]; antagonist 400 nM
  % of autoantibody Neurite Retraction from TBI patients: 20%

## SCLLADDN [Peptide 2]
[6]
  effect of repeated peptide injections on blood glucose concentration: no evidence that the peptide injections caused a significant increase in blood glucose concentration
[7]; ZDF rats, alternate daily 2 mg/kg IP
  vomiting or other side effects during and for 15 days after administration: did not experience vomiting or any other side effects
[7]; three ZDF rats, approximately 1 mg single intraperitoneal injection
  side effects eighteen days after injection: no untoward side effects were observed
